The source of these data is patent US11702707B2, “Systems and methods for assessing contamination of drinking water” (priority 2011, dated 2023).

The test system of this assay is HepG2 cells. The experiment in a line: FACTORIAL transcription factor signature assay (reporter transcription units) in a test cell system. It counts as cell-based, human.

With triphenyltin, the “most affected reporter transcription units (transcription factor signature)” value (24 hours after exposure) is “cellular heat shock response element (HSE), the peroxisome proliferator activating protein (PPAR) and the oxidative stress-specific RTU, NRF-2/ARE”.

As to `[Cl][Cd][Cl]` [cadmium dichloride], where the note is “24 hours after exposure, 2.5 μM, 0.6 μM, 0.16 μM and 0.04 μM”, the “reporter elements with most pronounced cellular response (transcription factor signature)” value was “most pronounced for the metallothionein response element (MRE) and the heat shock-response element (HSE)”.

As to “lipopolysaccharide [endotoxin (lipopolysaccharide, LPS)]”, under “24 hours after exposure”, the “most affected reporter transcription units (transcription factor signature)” value was “NF-kappaB and Interferon-specific response element (ISRE)”.

Consider `O=Cc1c2[nH]c3ccccc3c2cc2[nH]c3ccccc3c12` [6-formylindolo-[3,2-b]carbazole], for which the “specific pathway shown by fluorescence peak manifestation (transcription factor signature)” value (HepG2 cells, after 24 hours exposure) is listed as “Ahryloxane receptor (AhR)”.
